Columns and labels:
BT-474 = assay: Cell growth inhibition assay; assay type: cell-based; settings: Homo sapiens; BT-474, breast, HER2+, PIK3CA K111N; single agent; read-out: IC50 Single Agent (mean +/- std)
Description: (§1) Human breast tumor lines. BT-474, HCC1419, HCC1937, HCC1954, HCC202, KPL-1, MDA-MB-157, MDA-MB-175-VII, MDA-MB-361, MDA-MB-453, SK-BR-3, SUM225PE, UACC893, and ZR-75-1; lung tumor line, CALU-3; and melanoma line, CHL-1, were from ATCC. Human breast tumor line JIMT-1 was from European Collection of Cell Cultures (UK). Human breast tumor lines SUM149PT, SUM190PT and SUM52PE were from Asterand. These lines were cultured in RPMI 1640 medium containing 10% fetal bovine serum (FBS). A head and neck tumor line, LICR LON HN5 (HN5), a gift from the Institute of Cancer Research, Surrey, U.K, was cultured in Dulbecco's modified Eagle medium (DMEM) containing 5% FBS; KPL-4 breast tumor cell line was kindly provided by Dr Junichi Kurebayashi (Kawasaki Medical School, Okayama, Japan) and cultured in DMEM containing 5% FBS. JIMT-1 is a line derived from a patient clinically resistant to trastuzumab (Herceptin®). BT-474-J4 is a single cell clone derived from a pool of BT-474 cells that were selected to grow in lapatinib to a concentration of 3 μM.
(§2) All cells were cultured for a minimum of 72 hours prior to cell plating. Cells were assayed in a 96-well tissue culture plate (NUNC 136102) of RPMI medium containing 10% FBS for all cells at 2,000 cells per well except KPL-4 and HN5 which were plated in DMEM containing 5% FBS at 500 cells per well. Approximately 24 hours after plating, cells were exposed to ten, two-fold or three-fold serial dilutions of compound or the combination of the two agents at a constant molar to molar ratio of 1:1 Compound A to Compound B in RPMI media containing 10% FBS or DMEM containing 5% FBS. Cells were incubated in the presence of compounds for 3 days. ATP levels were determined by adding Cell Titer Glo® (Promega) according to the manufacturer's protocol. Briefly, Cell Titer Glo® was added each plate, incubated for 20 minutes then luminescent signal was read on the SpectraMax L plate reader with a 0.5 sec integration time.
(§3) Inhibition of cell growth was estimated after treatment with compound or combination of compounds for three days and comparing the signal to cells treated with vehicle (DMSO). Cell growth was calculated relative to vehicle (DMSO) treated control wells. Concentration of compound that inhibits 50% of control cell growth (IC50) was interpolated using nonlinear regression with the equation, y=(A+(B−A)/(1+(C/x)̂D))), where A is the minimum response (ymin), B is the maximum response (ymax), C is the inflection point of the curve (EC50) and D is the Hill coefficient. […]

HCC1419 = assay: Cell growth inhibition assay; assay type: cell-based; settings: Homo sapiens; HCC1419, breast, HER2+, WT; single agent; read-out: IC50 Single Agent (mean +/- std)
Description: as §1, §2, §3

HCC1937 = assay: Cell growth inhibition assay; assay type: cell-based; settings: Homo sapiens; HCC1937, breast, PTEN low; single agent; read-out: IC50 Single Agent (mean +/- std)
Description: as §1, §2, §3

HCC1954 = assay: Cell growth inhibition assay; assay type: cell-based; settings: Homo sapiens, HCC1954, HCC1954, breast, HER2+, PIK3CA H1047R; single agent; read-out: IC50 Single Agent (mean +/- std)
Description: as §1, §2, §3

HCC202 = assay: Cell growth inhibition assay; assay type: cell-based; settings: Homo sapiens; HCC202, breast, HER2+, PIK3CA E545K; single agent; read-out: IC50 Single Agent (mean +/- std)
Description: as §1, §2, §3

KPL-1 = assay: Cell growth inhibition assay; assay type: cell-based; settings: Homo sapiens; KPL-1, breast, PIK3CA E545K; single agent; read-out: IC50 Single Agent (mean +/- std)
Description: as §1, §2, §3

KPL-4 = assay: Cell growth inhibition assay; assay type: cell-based; settings: Homo sapiens, KPL4, KPL-4, breast, HER2+, PIK3CA H1047R; single agent; read-out: IC50 Single Agent (mean +/- std)
Description: as §1, §2, §3

MDA-MB-157 = assay: Cell growth inhibition assay; assay type: cell-based; settings: Homo sapiens; MDA-MB-157, breast, WT; single agent; read-out: IC50 Single Agent (mean +/- std)
Description: as §1, §2, §3

SK-BR-3 = assay: Cell growth inhibition assay; assay type: cell-based; settings: Homo sapiens; SK-BR-3, breast, HER2+, WT; single agent; read-out: IC50 Single Agent (mean +/- std)
Description: as §1, §2, §3

ZR-75-1 = assay: Cell growth inhibition assay; assay type: cell-based; settings: Homo sapiens, ZR-75-1, ZR-75-1, breast, PTEN L108R; single agent; read-out: IC50 Single Agent (mean +/- std)
Description: as §1, §2, §3

Capan2 tumor xenografts = assay: Growth of human pancreatic tumor xenografts in SCID mice; assay type: in vivo; settings: for % Tumor Growth Inhibition: Capan2-D01, QD, Treatment Duration 56; for tumor growth inhibition: Capan2
Description: (§4) Female SCID mice were implanted subcutaneously with HPAC or Capan2 tumor cells (human pancreatic carcinoma harboring mutant KRAS gene). When the tumor volume reached ˜150 mm^3, mice were block randomized to different treatment groups (n=8 mice/group). Mice received AKT inhibitor, Compound B, at 10 or 30 mg/kg, once daily (QD). MEK inhibitor, Compound A, was administered at 0.1, 0.3 and 1.0 mg/kg, once daily (QD) alone or at 0.1 and 0.3 mg/kg once daily in combination with AKT inhibitor. Mice were weighed and tumors measured by calipers twice weekly. Treatment was continued till the tumor volume reached >1000 mm^3. Tumor volumes were calculated using the formula: tumor volume=(Length×Width^2)/2. The percentage of tumor growth inhibition was calculated on each day of tumor measurement using the formula: 100×[1−(average growth of the compound-treated tumors/average growth of vehicle-treated control tumors)]. Data is plotted as mean±sem for tumor volume for each group.

HPAC tumor xenografts = assay: as above; assay type: in vivo; settings: for % Tumor Growth Inhibition: QD; for tumor growth inhibition: HPAC
Description: as §4

CC(=O)Nc1cccc(-n2c(=O)n(C3CC3)c(=O)c3c(Nc4ccc(I)cc4F)n(C)c(=O)c(C)c32)c1 [Compound A, N-{3-[3-cyclopropyl-5-(2-fluoro-4-iodo-phenylamino)-6,8-dimethyl-2,4,7-trioxo-3,4,6,7-tetrahydro-2H-pyrido[4,3-d]pyrimidin-1-yl]phenyl}acetamide]
IC50 (BT-474): > 1000 nM
IC50 (HCC1419): > 1000 nM
IC50 (HCC1937): > 1000 nM
IC50 (HCC1954): > 1000 nM
IC50 (HCC202): > 1000 nM
IC50 (KPL-1): > 1000 nM
IC50 (KPL-4): > 1000 nM
IC50 (MDA-MB-157): > 1000 nM
IC50 (SK-BR-3): > 1000 nM
IC50 (ZR-75-1): > 1000 nM
% Tumor Growth Inhibition (Capan2 tumor xenografts; Compound A 0.1 mg/kg po): 74%
% Tumor Growth Inhibition (Capan2 tumor xenografts; Compound A 0.3 mg/kg po): 90%
% Tumor Growth Inhibition (Capan2 tumor xenografts; Compound A 1 mg/kg po): 104%
tumor growth inhibition (Capan2 tumor xenografts; 0.1 mg/kg): 70%
tumor growth inhibition (Capan2 tumor xenografts; 0.3 mg/kg): 87%
tumor growth inhibition (Capan2 tumor xenografts; 1.0 mg/kg): 104%
% Tumor Growth Inhibition (HPAC tumor xenografts; HPAC-D01, Compound A 0.1 mg/kg po, Treatment Duration 75): 38%
% Tumor Growth Inhibition (HPAC tumor xenografts; HPAC-D01, Compound A 0.3 mg/kg po, Treatment Duration 75): 60%
% Tumor Growth Inhibition (HPAC tumor xenografts; HPAC-D01, Compound A 1 mg/kg po, Treatment Duration 75): 91%
% Tumor Growth Inhibition (HPAC tumor xenografts; HPAC-D02, Compound A 0.1 mg/kg po, Treatment Duration 74): 41%
% Tumor Growth Inhibition (HPAC tumor xenografts; HPAC-D02, Compound A 0.3 mg/kg po, Treatment Duration 74): 65%
% Tumor Growth Inhibition (HPAC tumor xenografts; HPAC-D02, Compound A 1 mg/kg po, Treatment Duration 74): 89%
tumor growth inhibition (HPAC tumor xenografts; 0.1 mg/kg QD): ~40%
tumor growth inhibition (HPAC tumor xenografts; 0.3 mg/kg QD): ~60%
tumor growth inhibition (HPAC tumor xenografts; 1 mg/kg QD): ~90%

Cn1ncc(Cl)c1-c1cc(C(=O)N[C@H](CN)Cc2ccc(F)c(F)c2)oc1Cl [Compound B, N-{(1S)-2-amino-1-[(3,4-difluorophenyl)methyl]ethyl}-5-chloro-4-(4-chloro-1-methyl-1H-pyrazol-5-yl)-2-furancarboxamide]
IC50 (BT-474): > 1000 nM
IC50 (HCC1419): > 1000 nM
IC50 (HCC1937): > 1000 nM
IC50 (HCC202): > 1000 nM
IC50 (KPL-1): > 1000 nM
IC50 (MDA-MB-157): > 1000 nM
IC50 (SK-BR-3): > 1000 nM
% Tumor Growth Inhibition (Capan2 tumor xenografts; Compound B 10 mg/kg po): 22%
% Tumor Growth Inhibition (Capan2 tumor xenografts; Compound B 30 mg/kg po): 26%
tumor growth inhibition (Capan2 tumor xenografts; at both 10 and 30 mg/kg doses): 27-30%
% Tumor Growth Inhibition (HPAC tumor xenografts; HPAC-D01, Compound B 10 mg/kg po, Treatment Duration 75): 11%
% Tumor Growth Inhibition (HPAC tumor xenografts; HPAC-D01, Compound B 30 mg/kg po, Treatment Duration 75): 40%
% Tumor Growth Inhibition (HPAC tumor xenografts; HPAC-D02, Compound B 10 mg/kg po, Treatment Duration 74): 15%
% Tumor Growth Inhibition (HPAC tumor xenografts; HPAC-D02, Compound B 30 mg/kg po, Treatment Duration 74): 31%
tumor growth inhibition (HPAC tumor xenografts; 10 mg/kg QD, two independent studies): 11-15%
tumor growth inhibition (HPAC tumor xenografts; 30 mg/kg QD, two independent studies): 31-40%
